We go through 22 compounds from US20100311714A1, “1H-IMIDAZO[4,5-c]QUINOLINONE COMPOUNDS” (priority 2009, published 2010).

SMILES strings stand for the structures.

In one assay the target is T1, PI3K delta (Homo sapiens, UniProt O00329).
T1 construct: for the full-length p110-d subunit are generated and fused by overlapping PCR; His tag (C); made in house; host or cells: baculovirus BV1060; Tn5 (Trichoplusia ni) or TiniPro insect cells
Description: PI3K delta kinase assay (Kinase-Glo luminescence). The assay is classed as biochemical. Particulars: read-out: EPK_PI3Kdelta/IC50. In outline:
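Kinase-Glo ATP-depletion luminescence using 10 nM p85(iSH2)-linker-p110δ full-length His-tag construct from insect cells, with 1 μM ATP and 10 μg/mL phosphatidylinositol in 10 mM Tris pH 7.5, 3 mM MgCl2, 50 mM NaCl, 0.05% CHAPS, 1 mM DTT. 60 min room temperature; IC50 from 4-parameter logistic fit over 8 concentrations.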

The target of another assay is T2, PI3K alfa (Homo sapiens, UniProt P42336).
T2 construct: His tag (C); made in house; host or cells: baculovirus BV1075; Tn5 (Trichoplusia ni) or TiniPro insect cells
T2 sequence (P42336 with tags, fused parts or gaps limits assumed): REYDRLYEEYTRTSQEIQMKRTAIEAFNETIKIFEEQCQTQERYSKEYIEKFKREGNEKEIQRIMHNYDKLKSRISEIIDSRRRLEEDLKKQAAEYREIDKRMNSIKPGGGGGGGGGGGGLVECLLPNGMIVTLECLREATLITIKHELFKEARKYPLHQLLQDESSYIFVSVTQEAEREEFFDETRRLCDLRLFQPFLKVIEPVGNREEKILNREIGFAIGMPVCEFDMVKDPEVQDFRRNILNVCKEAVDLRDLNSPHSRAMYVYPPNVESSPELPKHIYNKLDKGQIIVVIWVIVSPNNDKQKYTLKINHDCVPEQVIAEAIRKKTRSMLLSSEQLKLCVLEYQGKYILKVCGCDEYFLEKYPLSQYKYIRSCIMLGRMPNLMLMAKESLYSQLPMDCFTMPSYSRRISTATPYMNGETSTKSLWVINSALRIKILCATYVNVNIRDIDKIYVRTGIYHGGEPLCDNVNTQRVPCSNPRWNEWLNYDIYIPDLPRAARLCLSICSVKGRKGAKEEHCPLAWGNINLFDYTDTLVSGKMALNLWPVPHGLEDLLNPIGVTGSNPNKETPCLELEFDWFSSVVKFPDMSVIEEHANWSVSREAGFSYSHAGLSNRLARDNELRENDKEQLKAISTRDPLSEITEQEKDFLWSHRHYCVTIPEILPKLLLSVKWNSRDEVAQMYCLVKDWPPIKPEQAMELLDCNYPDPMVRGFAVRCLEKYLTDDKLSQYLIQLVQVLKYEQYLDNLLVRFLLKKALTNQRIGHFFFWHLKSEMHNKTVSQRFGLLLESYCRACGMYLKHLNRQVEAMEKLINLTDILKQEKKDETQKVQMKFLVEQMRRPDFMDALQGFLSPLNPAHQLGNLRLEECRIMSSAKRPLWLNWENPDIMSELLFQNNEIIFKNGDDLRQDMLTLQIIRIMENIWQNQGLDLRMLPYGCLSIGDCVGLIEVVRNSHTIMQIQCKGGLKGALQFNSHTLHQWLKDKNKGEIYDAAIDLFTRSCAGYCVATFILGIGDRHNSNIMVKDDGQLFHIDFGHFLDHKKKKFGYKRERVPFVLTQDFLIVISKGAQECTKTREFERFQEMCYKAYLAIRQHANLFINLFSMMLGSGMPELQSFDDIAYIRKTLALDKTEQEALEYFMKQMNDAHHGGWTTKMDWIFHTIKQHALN
Description: PI3K alpha kinase assay (Kinase-Glo luminescence). The assay is classed as biochemical. Particulars: read-out: EPK_PI3Kalfa/IC50. In a few lines: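 Kinase-Glo luminescence read of ATP remaining after PI3Kα (10 nM) phosphorylates 10 μg/mL bovine liver phosphatidylinositol with 1 μM ATP, pH 7.5 TRIS, 3 mM MgCl2, 0.05% CHAPS; 60 min at room temperature. IC50 from 4-parameter logistic fit over 8 concentrations.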
A general note: Kinase-Glo measures the ATP left after a reaction by luminescence.

T1 sequence (O00329 with tags, fused parts or gaps limits assumed): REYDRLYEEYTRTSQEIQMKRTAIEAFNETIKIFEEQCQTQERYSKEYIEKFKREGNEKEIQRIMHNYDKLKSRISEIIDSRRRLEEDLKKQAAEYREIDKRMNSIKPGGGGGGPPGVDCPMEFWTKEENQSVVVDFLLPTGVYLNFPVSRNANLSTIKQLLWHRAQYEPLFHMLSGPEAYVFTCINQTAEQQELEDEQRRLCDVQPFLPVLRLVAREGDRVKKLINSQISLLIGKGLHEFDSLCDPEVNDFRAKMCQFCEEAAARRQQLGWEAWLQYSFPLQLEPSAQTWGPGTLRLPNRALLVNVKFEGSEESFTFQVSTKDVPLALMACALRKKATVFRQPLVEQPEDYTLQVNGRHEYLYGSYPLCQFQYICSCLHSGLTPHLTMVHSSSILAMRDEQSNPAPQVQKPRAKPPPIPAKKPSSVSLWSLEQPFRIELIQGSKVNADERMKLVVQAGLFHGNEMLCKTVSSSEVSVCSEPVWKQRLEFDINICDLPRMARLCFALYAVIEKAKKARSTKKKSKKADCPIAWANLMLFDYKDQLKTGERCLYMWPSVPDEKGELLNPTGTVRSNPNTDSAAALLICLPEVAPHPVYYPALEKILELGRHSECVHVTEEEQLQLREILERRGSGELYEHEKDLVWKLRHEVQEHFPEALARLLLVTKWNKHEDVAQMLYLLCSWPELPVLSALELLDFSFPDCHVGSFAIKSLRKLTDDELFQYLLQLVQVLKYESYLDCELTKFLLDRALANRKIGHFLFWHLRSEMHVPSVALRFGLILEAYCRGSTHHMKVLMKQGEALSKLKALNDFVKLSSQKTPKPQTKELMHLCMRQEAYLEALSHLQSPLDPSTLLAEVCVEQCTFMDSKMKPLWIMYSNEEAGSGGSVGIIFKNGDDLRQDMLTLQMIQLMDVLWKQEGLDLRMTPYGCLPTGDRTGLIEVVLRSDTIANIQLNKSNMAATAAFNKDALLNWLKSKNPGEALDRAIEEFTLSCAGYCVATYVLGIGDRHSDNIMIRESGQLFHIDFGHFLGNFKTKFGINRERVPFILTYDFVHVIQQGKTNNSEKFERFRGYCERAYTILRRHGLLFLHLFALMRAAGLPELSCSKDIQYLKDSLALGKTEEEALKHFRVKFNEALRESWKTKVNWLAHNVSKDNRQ

With `Cc1nc(N(C)CCO)ccc1-n1c(=O)n(C)c2cnc3ccc(-c4cnc(N)c(C(F)(F)F)c4)cc3c21` [Example 26.1, 8-(6-Amino-5-trifluoromethyl-pyridin-3-yl)-1-{6-[(2-hydroxy-ethyl)-methyl-amino]-2-methyl-pyridin-3-yl}-3-methyl-1,3-dihydro-imidazo[4,5-c]quinolin-2-one], the results for the IC50 at PI3K delta and on PI3K alfa were below 3 nM and 12 nM, respectively.
In the same order, the values of `CNc1ncc(-c2ccc3ncc4c(c3c2)n(-c2ccc(N(C)CCO)nc2C)c(=O)n4C)cn1` [Example 26.2, 1-{6-[(2-Hydroxy-ethyl)-methyl-amino]-2-methyl-pyridin-3-yl}-3-methyl-8-(2-methylamino-pyrimidin-5-yl)-1,3-dihydro-imidazo[4,5-c]quinolin-2-one] are 88 nM and 63 nM.
`CNc1ncc(-c2ccc3ncc4c(c3c2)n(-c2ccc(N3CCC(O)C3)nc2C)c(=O)n4C)cn1` (centres unmarked) [Example 27.2, 1-[6-(3-Hydroxy-pyrrolidin-1-yl)-2-methyl-pyridin-3-yl]-3-methyl-8-(2-methylamino-pyrimidin-5-yl)-1,3-dihydro-imidazo[4,5-c]quinolin-2-one]: the values for the IC50 on PI3K delta and at PI3K alfa were 55 nM and 32 nM, respectively.
`COC1CCN(c2ccc(-n3c(=O)n(C)c4cnc5ccc(-c6cncc(C(C)(C)O)c6)cc5c43)c(C)n2)C1` (centres unmarked) [Example 28.1, 8-[5-(1-Hydroxy-1-methyl-ethyl)-pyridin-3-yl]-1-[6-(3-methoxy-pyrrolidin-1-yl)-2-methyl-pyridin-3-yl]-3-methyl-1,3-dihydro-imidazo[4,5-c]quinolin-2-one]: the values for the IC50 on PI3K delta and at PI3K alfa were 59 nM and 18 nM, respectively.
With `CCNc1cc(-c2ccc3ncc4c(c3c2)n(-c2ccc(N3CC(O)C3)nc2C)c(=O)n4C)cnc1CO` [Example 29.2, 8-(5-Ethylamino-6-hydroxymethyl-pyridin-3-yl)-1-[6-(3-hydroxy-azetidin-1-yl)-2-methyl-pyridin-3-yl]-3-methyl-1,3-dihydro-imidazo[4,5-c]quinolin-2-one], the results for the IC50 at PI3K delta and at PI3K alfa were 19 nM and 9 nM, respectively.
Consider `CNc1ncc(-c2ccc3ncc4c(c3c2)n(-c2ccc(N3CC(O)C3)nc2C)c(=O)n4C)cc1F` [Example 29.3, 8-(5-Fluoro-6-methylamino-pyridin-3-yl)-1-[6-(3-hydroxy-azetidin-1-yl)-2-methyl-pyridin-3-yl]-3-methyl-1,3-dihydro-imidazo[4,5-c]quinolin-2-one], for which the values for the IC50 on PI3K delta and on PI3K alfa were 23 nM and 40 nM, respectively.
Regarding `CNc1ncc(-c2ccc3ncc4c(c3c2)n(-c2ccc(N3CC(O)C3)nc2C)c(=O)n4C)cc1C(F)(F)F` [Example 29.4, 1-[6-(3-Hydroxy-azetidin-1-yl)-2-methyl-pyridin-3-yl]-3-methyl-8-(6-methylamino-5-trifluoromethyl-pyridin-3-yl)-1,3-dihydro-imidazo[4,5-c]quinolin-2-one], the results for the IC50 at PI3K delta and on PI3K alfa were 13 nM and 17 nM, respectively.
Consider `COc1cc(-c2ccc3ncc4c(c3c2)n(-c2ccc(N3CC(O)C3)nc2C)c(=O)n4C)cnc1CO` [Example 29.5, 1-[6-(3-Hydroxy-azetidin-1-yl)-2-methyl-pyridin-3-yl]-8-(6-hydroxymethyl-5-methoxy-pyridin-3-yl)-3-methyl-1,3-dihydro-imidazo[4,5-c]quinolin-2-one], for which the IC50 on PI3K delta was found to be 50 nM; at PI3K alfa, 31 nM.
For `COc1ncc(-c2ccc3ncc4c(c3c2)n(-c2ccc(N3CC(O)C3)nc2C)c(=O)n4C)c(OC)n1` [Example 29.6, 8-(2,4-Dimethoxy-pyrimidin-5-yl)-1-[6-(3-hydroxy-azetidin-1-yl)-2-methyl-pyridin-3-yl]-3-methyl-1,3-dihydro-imidazo[4,5-c]quinolin-2-one] the same measures were 10 nM and 23 nM.
As for `CNc1ncc(-c2ccc3ncc4c(c3c2)n(-c2ccc(C(C)(C)O)nc2C)c(=O)n4C)cc1F` [Example 31.1, 8-(5-Fluoro-6-methylamino-pyridin-3-yl)-1-[6-(1-hydroxy-1-methyl-ethyl)-2-methyl-pyridin-3-yl]-3-methyl-1,3-dihydro-imidazo[4,5-c]quinolin-2-one], the IC50 on PI3K delta was determined as 3 nM; at PI3K alfa, 23 nM.
With `CCOc1ccc(-c2ccc3ncc4c(c3c2)n(-c2ccc(C(C)(C)O)nc2C)c(=O)n4C)cn1` [Example 31.4, 8-(6-Ethoxy-pyridin-3-yl)-1-[6-(1-hydroxy-1-methyl-ethyl)-2-methyl-pyridin-3-yl]-3-methyl-1,3-dihydro-imidazo[4,5-c]quinolin-2-one], the IC50 at PI3K delta stood at 36 nM; on PI3K alfa, 84 nM.
With `Cc1nc(C(C)(C)O)ccc1-n1c(=O)n(C)c2cnc3ccc(-c4cnc(N)c(C(F)(F)F)c4)cc3c21` [Example 31.5, 8-(6-Amino-5-trifluoromethyl-pyridin-3-yl)-1-[6-(1-hydroxy-1-methyl-ethyl)-2-methyl-pyridin-3-yl]-3-methyl-1,3-dihydro-imidazo[4,5-c]quinolin-2-one], the IC50 on PI3K delta is below 3 nM; on PI3K alfa, 6 nM.
`Cc1nc(C(C)(C)O)ccc1-n1c(=O)n(C)c2cnc3ccc(-c4cncc(C(C)(C)C#N)c4)cc3c21` [Example 31.6, 2-(5-{1-[6-(1-Hydroxy-1-methyl-ethyl)-2-methyl-pyridin-3-yl]-3-methyl-2-oxo-2,3-dihydro-1H-imidazo[4,5-c]quinolin-8-yl}-pyridin-3-yl)-2-methyl-propionitrile]: the IC50 is 7 nM at PI3K delta and 2 nM on PI3K alfa.
Consider `CCNc1ncc(-c2ccc3ncc4c(c3c2)n(-c2ccc(C(C)(C)O)nc2C)c(=O)n4C)cn1` [Example 31.7, 8-(2-Ethylamino-pyrimidin-5-yl)-1-[6-(1-hydroxy-1-methyl-ethyl)-2-methyl-pyridin-3-yl]-3-methyl-1,3-dihydro-imidazo[4,5-c]quinolin-2-one], for which the values for the IC50 on PI3K delta and at PI3K alfa were 27 nM and 75 nM, respectively.
For `Cc1nc(C(C)(C)O)ccc1-n1c(=O)n(C)c2cnc3ccc(-c4cncc(C5(C#N)CCC5)c4)cc3c21` [Example 31.8, 1-(5-{1-[6-(1-Hydroxy-1-methyl-ethyl)-2-methyl-pyridin-3-yl]-3-methyl-2-oxo-2,3-dihydro-1H-imidazo[4,5-c]quinolin-8-yl}-pyridin-3-yl)-cyclobutanecarbonitrile], the IC50 is 7 nM on PI3K delta and 31 nM on PI3K alfa.
Regarding `CNc1ncc(-c2ccc3ncc4c(c3c2)n(-c2ccc(N3CC[C@H](O)C3)nc2C)c(=O)n4C)cn1` [Example 32.1, 1-[6-((S)-3-Hydroxy-pyrrolidin-1-yl)-2-methyl-pyridin-3-yl]-3-methyl-8-(2-methylamino-pyrimidin-5-yl)-1,3-dihydro-imidazo[4,5-c]quinolin-2-one], the IC50 on PI3K delta was 9 nM; on PI3K alfa it was 17 nM.
Consider `CNc1ncc(-c2ccc3ncc4c(c3c2)n(-c2ccc(N3CC[C@H](O)C3)nc2C)c(=O)n4C)cc1F` [Example 32.2, 8-(5-Fluoro-6-methylamino-pyridin-3-yl)-1-[6-((S)-3-hydroxy-pyrrolidin-1-yl)-2-methyl-pyridin-3-yl]-3-methyl-1,3-dihydro-imidazo[4,5-c]quinolin-2-one], for which the IC50 on PI3K delta was determined as 36 nM; at PI3K alfa it was 44 nM.
`COc1ncc(-c2ccc3ncc4c(c3c2)n(-c2ccc(N3CC[C@H](O)C3)nc2C)c(=O)n4C)c(OC)n1` [Example 32.3, 8-(2,4-Dimethoxy-pyrimidin-5-yl)-1-[6-((S)-3-hydroxy-pyrrolidin-1-yl)-2-methyl-pyridin-3-yl]-3-methyl-1,3-dihydro-imidazo[4,5-c]quinolin-2-one]: the figures for the IC50 at PI3K delta and at PI3K alfa were 11 nM and 32 nM, respectively.
As for `CNc1ncc(-c2ccc3ncc4c(c3c2)n(-c2ccc(N3CC[C@H](O)C3)nc2C)c(=O)n4C)cc1C(F)(F)F` [Example 32.5, 1-[6-((S)-3-Hydroxy-pyrrolidin-1-yl)-2-methyl-pyridin-3-yl]-3-methyl-8-(6-methylamino-5-trifluoromethyl-pyridin-3-yl)-1,3-dihydro-imidazo[4,5-c]quinolin-2-one], the IC50 on PI3K delta is 4 nM; on PI3K alfa it was 9 nM.
Regarding `Cc1nc(N2CC[C@H](O)C2)ccc1-n1c(=O)n(C)c2cnc3ccc(-c4cncc(OC(C)C)c4)cc3c21` [Example 32.8, 1-[6-((S)-3-Hydroxy-pyrrolidin-1-yl)-2-methyl-pyridin-3-yl]-8-(5-isopropoxy-pyridin-3-yl)-3-methyl-1,3-dihydro-imidazo[4,5-c]quinolin-2-one], the figures for the IC50 at PI3K delta and on PI3K alfa were 39 nM and 71 nM, respectively.
Regarding `Cc1nc(C(F)(F)F)ccc1-n1c(=O)n(C)c2cnc3ccc(-c4cncc(C(C)(C)O)c4)cc3c21` [Example 33.1, 8-[5-(1-Hydroxy-1-methyl-ethyl)-pyridin-3-yl]-3-methyl-1-(2-methyl-6-trifluoromethyl-pyridin-3-yl)-1,3-dihydro-imidazo[4,5-c]quinolin-2-one], the figures for the IC50 on PI3K delta and at PI3K alfa were 6 nM and 13 nM, respectively.
As to `CCNc1ncc(-c2ccc3ncc4c(c3c2)n(-c2ccc(N3CC[C@@H](O)C3)nc2C)c(=O)n4C)cc1C(F)(F)F` [Example 34.2, 8-(6-Ethylamino-5-trifluoromethyl-pyridin-3-yl)-1-[6-((R)-3-hydroxy-pyrrolidin-1-yl)-2-methyl-pyridin-3-yl]-3-methyl-1,3-dihydro-imidazo[4,5-c]quinolin-2-one], the IC50 was 12 nM on PI3K delta and 28 nM on PI3K alfa.
